{"source": "patent US5420334A", "about": "“Inhibitors of farnesyl-protein transferase” (Merck & Co., Inc., priority 1994, dated 1995)", "note": "pIC50: −log10 of the molar value.", "data": [{"target": "T1, bovine brain FPTase (Bos taurus, UniProt P29702+P49355)", "T1 construct": "Famesyl-protein transferase (FPTase) from bovine brain; from tissue; host or cells: bovine brain, partially purified (DEAE-Sephacel, N-octyl agarose, mono Q)", "test": "In vitro inhibition of Ras farnesyl-protein transferase (FPTase)", "assay_type": "biochemical", "settings": "Ras-CVLS, [3H]FPP, concentration giving 50% inhibition, read-out: IC50, inhibition of RAS farnesylation", "experimental": "The intrinsic famesyl-protein transferase (FPTase) activity of representative compounds of this invention was measured by the assay as described below:\nFamesyl-protein transferase (FPTase) from bovine brain was chromatographed on DEAE-Sephacel (Pharmacia, 0-0.8M NaCl gradient elution), N-octyl agarose (Sigma, 0-0.6M NaCl gradient elution), and a mono Q HPLC column (Pharmacia, 0-0.3M NaCl gradient). Ras-CVLS (Cys-Val-Leu-Ser) at […], […] [^3 H]FPP, and the indicated compounds were incubated with this partially purified enzyme preparation. FPTase inhibition data is a measurement of the ability of the test compound to inhibit Ras farnesylation in vitro.\nFamesyl-protein transferase (FPTase) from bovine brain was chromatographed on DEAE-Sephacel (Pharmacia, 0-0.8M NaCl gradient elution), N-octyl agarose (Sigma, 0-0.6M NaCl gradient elution), and a mono Q HPLC column (Pharmacia, 0-0.3M NaCl gradient). Ras-CVLS at 3.5 µM, 0.25 µM [3H]FPP, and the indicated compounds were incubated with either a partially purified bovine enzyme preparation or a recombinant human enzyme preparation. The FPTase data presented below in Table 1 reflects the ability of the test compound to inhibit RAS famesylation in vitro, as described in Pompliano, et al., Biochemistry 31, 3800 (1992).\n*(IC50 is the concentration of the test compound which gives 50%\ninhibition of bovine brain FPTase under the described assay conditions)", "values": [{"smiles": "C/C(=C\\Cc1c(O)cc(C)c(C=O)c1O)CC[C@@]1(C)[C@H](C)C(=O)CC[C@@H]1C", "note": "[Compound 1, 3-[5-[1(R),2(S),6(S)-trimethyl-5-oxocyclohexyl]-3-methyl-2-pentenyl]-2,4-di hydroxy-6-methylbenzaldehyde]", "pIC50": 6.15}, {"smiles": "CC(=O)O[C@@H]1CC(=O)[C@@H](C)[C@](C)(/C=C/C(C)=C/Cc2c(O)c(Cl)c(C)c(C=O)c2O)[C@H]1C", "note": "[Compound 2]", "pIC50": 5.55}, {"smiles": "CC(=O)O[C@@H]1CC(=O)[C@@H](C)[C@](C)(/C=C/C(C)=C/Cc2c(O)cc(C)c(C=O)c2O)[C@H]1C", "note": "[Compound 3]", "pIC50": 5.25}, {"smiles": "CC(/C=C/[C@@]1(C)[C@H](C)C(=O)CC[C@@H]1C)=C\\Cc1c(O)cc(C)c(C=O)c1O", "note": "[Compound 4]", "pIC50": 5.19}, {"smiles": "CC(/C=C/[C@@]1(C)[C@H](C)C(=O)C=C[C@@H]1C)=C\\Cc1c(O)c(Cl)c(C)c(C=O)c1O", "note": "[Compound 5]", "pIC50": 4.82}, {"smiles": "C/C(=C\\Cc1c(O)cc(C)c(C=O)c1O)[C@H](C[C@@]1(C)[C@H](C)C(=O)CC[C@@H]1C)OC(=O)CC(C)C", "note": "[Compound 6, 3-[5-[1(R),2(S),6(S)-trimethyl-5-oxocyclohexyl]-3-methyl-4(S)-[3-methylbutanoyloxy]-2-pentenyl]-2,4-dihydroxy-6-methylbenzaldehyde]", "pIC50": 5.34}, {"smiles": "C/C(=C\\Cc1c(O)c(Cl)c(C)c(C=O)c1O)[C@H](C[C@@]1(C)[C@H](C)C(=O)CC[C@@H]1C)OC(=O)CC(C)C", "note": "[Compound 7]", "pIC50": 5.19}, {"smiles": "CCC(=O)O[C@@H](C[C@@]1(C)[C@H](C)C(=O)CC[C@@H]1C)/C(C)=C/Cc1c(O)cc(C)c(C=O)c1O", "note": "[Compound 8]", "pIC50": 5.66}, {"smiles": "CC(=O)O[C@@H](C[C@@]1(C)[C@H](C)C(=O)CC[C@@H]1C)/C(C)=C/Cc1c(O)cc(C)c(C=O)c1O", "note": "[Compound 9]", "pIC50": 4.89}, {"smiles": "CC(=O)Oc1cc(C)c(C=O)c(OC(C)=O)c1C/C=C(\\C)CC[C@@]1(C)[C@H](C)C(=O)CC[C@@H]1C", "note": "[Compound 11]", "pIC50": 5.19}, {"smiles": "COc1cc(C)c(C=O)c(O)c1C/C=C(C)/C=C/[C@@]1(C)[C@H](C)C(=O)CC[C@@H]1C", "note": "[Compound 12]", "pIC50": 4.51}, {"smiles": "COc1cc(C)c(C=O)c(O)c1C/C=C(\\C)CC[C@@]1(C)[C@H](C)C(=O)CC[C@@H]1C", "note": "[Compound 13, 3-[5-[1(R),2(S),6(S)-trimethyl-5-oxocyclohexyl]-3-methyl-2-pentenyl]-2-hydroxy-4-methoxy-6-methylbenzaldehyde]", "pIC50": 5.70}, {"smiles": "Cc1cc(O)c(CCC(C)CC[C@@]2(C)[C@H](C)C(=O)CC[C@@H]2C)c(O)c1C", "note": "(some centres unmarked) [Compound 14]", "pIC50": 4.73}, {"smiles": "C/C(=C\\Cc1c(O)cc(C)c(CO)c1O)CC[C@@]1(C)[C@H](C)[C@H](O)CC[C@@H]1C", "note": "[Compound 15]", "pIC50": 4.00}, {"smiles": "C/C(=C\\Cc1c(O)cc(C)c(C)c1O)CC[C@@]1(C)[C@H](C)C(=O)CC[C@@H]1C", "note": "[Compound 16]", "pIC50": 4.51}, {"smiles": "C/C(=C\\Cc1c(O)cc(C)c(C)c1O)CC[C@@]1(C)[C@H](C)[C@H](O)CC[C@@H]1C", "note": "[Compound 17]", "pIC50": "< 3.85"}, {"smiles": "C/C(=C\\Cc1c(O)cc(C)c(CO)c1O)CC[C@@]1(C)[C@H](C)C(=O)CC[C@@H]1C", "note": "[Compound 18]", "pIC50": 4.12}, {"smiles": "C/C(=C\\Cc1c(O[Si](C)(C)C(C)(C)C)cc(C)c(C=O)c1O)CC[C@@]1(C)[C@H](C)C(=O)CC[C@@H]1C", "note": "[Compound 19]", "pIC50": "< 3.85"}, {"smiles": "COC(=O)c1c(C)cc(O)c(C/C=C(\\C)CC[C@@]2(C)[C@H](C)C(=O)CC[C@@H]2C)c1O", "note": "[Compound 20]", "pIC50": "< 3.85"}, {"smiles": "COCOc1cc(C)c(C=O)c(OCOC)c1C/C=C(\\C)CC[C@@]1(C)[C@H](C)C(=O)CC[C@@H]1C", "note": "[Compound 21]", "pIC50": "< 4.30"}, {"smiles": "C/C(=C\\Cc1c(O)cc(C)cc1O)CC[C@@]1(C)[C@H](C)C(=O)CC[C@@H]1C", "note": "[Compound 24]", "pIC50": 4.70}]}, {"test_system": "Ras famesylation", "test": "not given", "settings": "cited from earlier work", "values": [{"smiles": "CC[C@H](C)C(=O)O[C@H]1CCC=C2C=C[C@H](C)[C@H](CC[C@@H]3C[C@@H](O)CC(=O)O3)[C@H]21", "note": "[compactin]", "Inhibition of Ras famesylation in vivo": "Inhibition of Ras famesylation in vivo has been demonstrated"}, {"smiles": "CC[C@H](C)C(=O)O[C@H]1C[C@@H](C)C=C2C=C[C@H](C)[C@H](CC[C@@H]3C[C@@H](O)CC(=O)O3)[C@H]21", "note": "[lovastatin]", "Inhibition of Ras famesylation in vivo": "Inhibition of Ras famesylation in vivo has been demonstrated"}]}]}
